Values of other authors, collected in patent US20070185065A1, “Combination therapy for coronary artery disease” (priority 2006, published 2007).
Like-named read-outs stand apart in the source and are kept apart here.

Experiments:
[1] = system: patients with atherosclerosis not limited to MI; settings: compared to aspirin, three year period
[2] = system: patients with known CHD and an HDL-C concentration below 45 mg/dL already receiving a statin
[3] = system: proinflammatory cytokines and C-reactive protein (CRP); settings: six weeks of therapy
[4] = system: asymptomatic patients with an LVEF 40 percent after MI; settings: mean follow-up of 42 months
[5] = system: patients with systolic left ventricular dysfunction (SLVD) post-MI
[6] = system: patients with chronic stable angina; settings: six weeks therapy, metoprolol 200 mg daily
[7] = system: patients with clinical evidence of HF post-MI
[8] = system: patients who have had an acute MI; settings: 160 mg twice daily

## COC(=O)[C@H](c1ccccc1Cl)N1CCc2sccc2C1 [Clopidogrel, clopidogrel]
[1]
  fatal or nonfatal MI: significant reduction

## O=C(O)c1cccnc1 [ER niacin, niacin]
[2]; 1000 mg daily, on top of a statin
  mean increase in HDL-C: 21%
[2]; 1000 mg daily, 1.0 mmol/L at baseline
  HDL-C on treatment: 1.22 mmol/L
[2]; 1000 mg daily, 39 mg/dL at baseline
  HDL-C on treatment: 47 mg/dL
[2]; 9.6 percent with placebo, p=0.20
  cardiovascular events, percent of patients: 3.8%
[2]; after one year of therapy, ultrasound, p=0.23, placebo 0.044 mm
  increase in mean carotid intima-media thickness (CIMT): 0.014 mm

## CC(=O)Oc1ccccc1C(=O)O [aspirin]
[3]
  markers of inflammation (proinflammatory cytokines and CRP): significantly reduced

## C[C@H](CS)C(=O)N1CCC[C@H]1C(=O)O [captopril]
[4]
  reduction in hospitalization for HF: 22%
  reduction in the incidence of recurrent MI: 25%
  reduction in the incidence of severe HF: 37%
[4]; versus placebo, 95% CI 3 to 32 percent
  decrease in mortality: 19%
[4]; 25 percent for placebo
  mortality: 20%

## COC(=O)[C@@H]1CC2=CC(=O)CC[C@]2(C)[C@@]23O[C@@H]2C[C@@]2(C)[C@@H](CC[C@@]24CCC(=O)O4)[C@H]13 [eplerenone]
[5]; added to standard therapy
  reduction in combined primary endpoint of CV mortality and CV hospitalization: 13%
[5]; added to standard therapy, P=0.005
  reduction in CV mortality: 17%
[5]; added to standard therapy, P=0.008
  reduction in all-cause mortality: 15%
[5]; subgroup already receiving ACE inhibitors and beta-blockers
  further reduction in mortality: 27%

## COCCc1ccc(OCC(O)CNC(C)C)cc1 (centres unmarked) [metoprolol]
[6]; long-acting preparations, nifedipine 20 mg BID
  increase in mean exercise time to 1-mm ST segment depression: 70 s
[6]
  frequency of angina: reduced the frequency of angina

## CCOC(=O)[C@H](CCc1ccccc1)N[C@@H](C)C(=O)N1[C@H](C(=O)O)C[C@@H]2CCC[C@@H]21 [ramipril]
[7]; 603 United Kingdom patients followed for a mean of 59 months, 39 percent placebo
  mortality: 28%
[7]; average of 15 months follow-up
  reduction in sudden death: 30%
  reduction in the incidence of severe, resistant HF: 23%
[7]; average of 15 months follow-up, versus placebo, 95% CI 11 to 40 percent
  decrease in mortality: 27%
[7]; average of 15 months follow-up, 18 percent for placebo
  incidence of severe, resistant HF: 14%
[7]; average of 15 months follow-up, 23 percent with placebo
  mortality: 17%
[7]; mean of 59 months, 95% CI 15 to 52 percent
  relative risk reduction (mortality): 36%

## CCCCC(=O)N(Cc1ccc(-c2ccccc2-c2nnn[nH]2)cc1)[C@H](C(=O)O)C(C)C [valsartan]
[8]
  reduction in mortality after an MI compared to an ACE inhibitor: as effective as an ACE inhibitor
